What was measured:
[1] = CXlogD at pH 7.4 ref https://ebi.ac.uk (02.04.2024); cited from earlier work
MRP4 (ABCC4) = settings: cited from earlier work
[2] = tested on: oral mucosa epithelium in vitro model based on human cell line TR146; experiment: Transport study across oral mucosa Transwell model, apical to basolateral, 240 min; settings: for Permeability coefficient without inflammation and inhibitor: Table S3; for cumulated concentration of NSAID in the basolateral compartment: 4 h; for permeability coefficient: mean ± SEM
Method: (§1) As soon as cells reached confluency, cultivation was switched from submerged to airlift and 1% Human Keratinocytes Growth Supplements (HKGS, Gibco, Thermofisher, Vienna, Austria, S0015) was added to the cultivation media on the basolateral compartment. Media were changed every 2–3 days until the day of experiment on day 29. Cells from passage 14–36 were used for experiments. Transepithelial electric resistance (TEER) was measured on day of experiment, as described in detail previously.
(§2) Solutions were diluted to 10 µM (carboxyfluorescein) or 100 µM in DMEM on day of experiments.
(§3) First, TEER was measured in cultivation media on the day of experiment. Afterwards, cells and blanks were washed twice with DMEM on the apical (300 µL) and basolateral (900 µL) compartments and selected cells and blanks were treated with DMEM with or without 100 µM probenecid or verapamil on the apical and basolateral side at 37 °C for 30 min. […] To cells which were pre-incubated with probenecid or verapamil, 100 µM probenecid or verapamil was applied apically as well. DMSO content was adapted for cells with no inhibitors, and DMSO and dd-H2O content was adjusted in the basolateral compartment as well in order to apply the same vehicle concentrations on the apical and basolateral compartment. […] Subsequently, duplicates of apical sample were collected, and samples were frozen at −80 °C until further analysis with High-Performance Liquid Chromatography (HPLC).
(§4) Peaks were quantified using the software Chromeleon Version 7.2.6, and corresponding mili absorbance unit × time [mAU × min] values were used for data analysis.
(§5) Mean values of relative fluorescence unit (RFU) or detected area [mAU × min] were used for calculation. For the first timepoint, the clearance [µL] for the detected area was calculated as shown in the formula below (1a), with Abasot1 as the measured area [mAU × min] at the first time point of the basolateral sample, Vbaso as the basolateral volume [µL] and Astock as the area measured for the applied stock solution. […] Clearance [µL] for carboxyfluorescein was calculated with the same formulas using RFU. (1a) Clearance=Abasot1×Vbaso/AStock (1b) Clearancetn=Abasotn×Vbaso/AStock−∑(Abasotn−1 ×3− Abasot1 ×3)
(§6) Cleared volume [µL] was calculated by plotting the sum of clearance at all time points over time [min]. The resulting slope PS [µL/min] was calculated inversely. For calculation of the PScell, the inverse PS blanks were subtracted, as shown below in Formula (2). (2) 1/PScell=1/PSall−1/PSblank
(§7) The final permeability coefficient is calculated by dividing the inverse PScell by the area of the ThinCerts (0.336 cm^2) and multiplying by a conversion factor to give the permeability coefficient as µm/min.

[3] = as above; settings: human
Method: as §1, §2, §3, §4, §5, §6, §7

[4] = Transport study across blank inserts without cells; settings: mean ± SD
Method: as §3, §5, §6

COX-2 = tested on: COX-2; set-up: method as in PMID 10866999; settings: human cell lines ref 59; cited from earlier work
[5] = Celexocib study, w/o Inhibitor, mean ± SD
[6] = without inhibitor, 100 µM apical (CF 10 µM)
[7] = Celexocib study, Probenecid, mean ± SD
[8] = Celexocib study, Verapamil, mean ± SD
[9] = Diclofenac study, Probenecid, mean ± SD
[10] = Diclofenac study, Verapamil, mean ± SD
[11] = Diclofenac study, w/o Inhibitor, mean ± SD
[12] = Ibuprofen study, Probenecid, mean ± SD
[13] = Ibuprofen study, Verapamil, mean ± SD
[14] = Ibuprofen study, w/o Inhibitor, mean ± SD
[15] = Piroxicam study, Probenecid, mean ± SD
[16] = Piroxicam study, Verapamil, mean ± SD
[17] = Piroxicam study, w/o Inhibitor, mean ± SD

In the case of `Cc1ccc(-c2cc(C(F)(F)F)nn2-c2ccc(S(N)(=O)=O)cc2)cc1` [celecoxib], the XlogD [1] is given as 4.01, the “inhibitory effect on MRP4 function” value (MRP4 (ABCC4)) is given as “weaker in comparison to ibuprofen” and the “PE (permeability of cell + blank)” value [2, 5] is given as 0.36 ± 0.15 µm/min. The “Permeability coefficient without inflammation and inhibitor” value ([2]; mean ± SD) was 0.44 ± 0.19 µm/min, the “increase of permeability coefficient with probenecid compared to no inhibitor” value ([2]; human, 240 min, 100 µM) was 13.63 fold and the “increase of permeability coefficient with verapamil compared to no inhibitor” value ([2]; human, 240 min, 100 µM) was 4.72 fold. For the same compound, the “cumulated concentration of NSAID in the basolateral compartment” value ([2]; human, 100 µM) was 0.0071 ± 0.00032 nmol/mm^2, the permeability coefficient ([2]; with 100 µM verapamil) was 2.10 ± 0.92 µm/min and the permeability coefficient [2, 6] was 0.44 ± 0.10 µm/min. The Papp A→B at 240 min ([3]; PC (permeability of cell), Celexocib study, w/o Inhibitor, mean ± SD) was 0.733 ×10⁻⁶ cm/s, the Papp A→B at 240 min ([3]; with probenecid 100 µM, PC (permeability of cell), Celexocib study, Probenecid, mean ± SD) was 10.1 ×10⁻⁶ cm/s and the Papp A→B at 240 min ([3]; with probenecid 100 µM, PE (permeability of cell + blank), Celexocib study, Probenecid, mean ± SD) was 2.72 ×10⁻⁶ cm/s. The Papp A→B at 240 min, 100 µM ([3]; with probenecid 100 µM, permeability coefficient, with 100 µM probenecid, mean ± SEM) was 21.2 ×10⁻⁶ cm/s and the Papp A→B at 240 min ([3]; with verapamil 100 µM, PC (permeability of cell), Celexocib study, Verapamil, mean ± SD) was 3.5 ×10⁻⁶ cm/s.

With `CN1C(=O)CN=C(c2ccccc2)c2cc(Cl)ccc21` [diazepam] the PS blank ([4]; Diclofenac study, Probenecid) was 0.15 ± 0.03 µL/min, the PS blank ([4]; Diclofenac study, Verapamil) was 0.13 ± 0.03 µL/min and the PS blank ([4]; Diclofenac study, w/o Inhibitor) was 0.17 ± 0.01 µL/min. It also gave a PS blank ([4]; Ibuprofen study, Probenecid) of 0.14 ± 0.01 µL/min, a PS blank ([4]; Ibuprofen study, Verapamil) of 0.12 ± 0.06 µL/min and a PS blank ([4]; Ibuprofen study, w/o Inhibitor) of 0.21 ± 0.03 µL/min. For the same compound, the PS blank ([4]; Piroxicam study, Probenecid) was 0.12 ± 0.03 µL/min, the PS blank ([4]; Piroxicam study, Verapamil) was 0.09 ± 0.02 µL/min and the PS blank ([4]; Piroxicam study, w/o Inhibitor) was 0.19 ± 0.02 µL/min. It also gave a PS blank ([4]; study, Probenecid) of 0.20 ± 0.004 µL/min, a PS blank ([4]; study, Verapamil) of 0.13 ± 0.05 µL/min and a PS blank ([4]; study, w/o Inhibitor) of 0.18 ± 0.003 µL/min. The “PS all (cell + blank)” value [2, 7] was 0.14 ± 0.004 µL/min, the PS cell [2, 7] was 0.46 ± 0.04 µL/min and the “PS all (cell + blank)” value [2, 8] was 0.09 ± 0.05 µL/min. For the same compound, the PS cell [2, 8] was 0.41 ± 0.35 µL/min, the “PS all (cell + blank)” value [2, 5] was 0.11 ± 0.02 µL/min and the PS cell [2, 5] was 0.38 ± 0.19 µL/min. For the same compound, the “PS all (cell + blank)” value [2, 9] was 0.12 ± 0.01 µL/min, the PS cell [2, 9] was 0.57 ± 0.21 µL/min and the “PS all (cell + blank)” value [2, 10] was 0.1 ± 0.03 µL/min. For the same compound, the PS cell [2, 10] was 0.68 ± 0.69 µL/min, the “PS all (cell + blank)” value [2, 11] was 0.11 ± 0.03 µL/min and the PS cell [2, 11] was 0.44 ± 0.35 µL/min. The “PS all (cell + blank)” value [2, 12] was 0.09 ± 0.02 µL/min, the PS cell [2, 12] was 0.29 ± 0.16 µL/min and the “PS all (cell + blank)” value [2, 13] was 0.08 ± 0.02 µL/min. For the same compound, the PS cell [2, 13] was 0.39 ± 0.35 µL/min, the “PS all (cell + blank)” value [2, 14] was 0.12 ± 0.02 µL/min and the PS cell [2, 14] was 0.31 ± 0.08 µL/min. The “PS all (cell + blank)” value [2, 15] was 0.1 ± 0.01 µL/min, the PS cell [2, 15] was 0.32 ± 0.14 µL/min and the “PS all (cell + blank)” value [2, 16] was 0.05 ± 0.03 µL/min. For the same compound, the PS cell [2, 16] was 0.24 ± 0.36 µL/min, the “PS all (cell + blank)” value [2, 17] was 0.12 ± 0.04 µL/min and the PS cell [2, 17] was 0.45 ± 0.24 µL/min.

In the case of `O=C(O)Cc1ccccc1Nc1c(Cl)cccc1Cl` [diclofenac], the XlogD [1] is given as 1.1, the “PE (permeability of cell + blank)” value [2, 11] is given as 2.11 ± 0.22 µm/min and the “Permeability coefficient without inflammation and inhibitor” value ([2]; mean ± SD) is given as 3.64 ± 0.84 µm/min. The “PE (permeability of cell + blank)” value ([2]; human, 240 min) was 2.98 ± 1.37 µm/min, the “increase of permeability coefficient with probenecid compared to no inhibitor” value ([2]; human, 240 min, 100 µM) was 1.83 fold and the “cumulated concentration of NSAID in the basolateral compartment” value ([2]; human, 100 µM) was 0.043 ± 0.0046 nmol/mm^2. The permeability coefficient ([2]; with 100 µM probenecid) was 6.66 ± 1.87 µm/min, the permeability coefficient ([2]; with 100 µM verapamil) was 3.54 ± 0.38 µm/min and the permeability coefficient [2, 6] was 3.64 ± 0.34 µm/min. The Papp A→B at 240 min ([3]; PC (permeability of cell)) was 11.1 ×10⁻⁶ cm/s and the Papp A→B at 240 min ([3]; PE (permeability of cell + blank)) was 3.43 ×10⁻⁶ cm/s.

In the case of `O=C(O)c1ccccc1Nc1cccc(C(F)(F)F)c1` [flufenamic acid], the COX-2 expression (COX-2) is given as “NF-κB-independent upregulation of COX-2”.
